The test system of data set [1] is deoxyribose. The experiment in a line: TBARS assay, existing sonodynamic agents with a metal, ultrasound (Example 13). It counts as biochemical. The settings on record: 0.025 mM ferrous iron, 0.025 mM ferric iron. The procedure: (§1) All solutions were prepared in pH 7.5 phosphate buffer containing approximately 2 mM deoxyribose, 0.01% hydrogen peroxide, 0.025 mM ferrous iron, 0.025 mM ferric iron, and the additives indicated in the table below. Solutions were sonicated at 30 W, 2 MHz, 32-34 degrees Celsius for ten minutes using a PZT-8 1.8 cm diameter custom transducer. The sonicated solution was placed on an orbit shaker rotating at 25 RPM to ensure even sonication of the solution while the transducer was held stationary. Control solutions were placed in a controlled temperature bath at 32-34 degrees Celsius without sonication. After 10 minutes of treatment, 1 mL test solution was placed in a test tube followed by 2 mL of 1% 2-thiobarbituric acid and 2 mL of 2.8% trichloroacetic acid. The test tube was sealed and heated to 90 degrees Celsius for 30 minutes and allowed to cool to room temperature for 20 minutes. The absorbance at 532 nm was measured. The enhanced radical production during ultrasound exposure was determined by comparing the amount of deoxyribose degradation that occurs in the sonicated solution versus the control solution using the following equation: [formula]

The test system of data set [2] is deoxyribose. As to the kind of experiment: TBARS assay, chelants during ultrasound exposure, ferrous iron (Example 1). It counts as biochemical. The following applies: 0.025 mM ferrous iron, 0.03-0.04 mM chelant, 0.01% hydrogen peroxide, pH 7.5, 30 W 2 MHz 10 min. The procedure:
as §1, with “The following example uses the thiobarbituric acid-reactive substances (TBARS) assay to identify chelants that enhance radical production during ultrasound exposure. All” for “All”, “iron, and 0.03-0.04” for “iron, 0.025”, “mM chelant.” for “mM ferric iron, and the additives indicated in the table below.”, “exposure is” for “exposure was”

Data set [3] has as its system deoxyribose. As to the kind of experiment: TBARS assay, additives in solutions containing iron or iron plus a chelant, ultrasound (Example 5). It counts as biochemical. The following applies: 0.08-0.1 mM ferric iron; EDTA 0.15 mM; 30 W 2 MHz 10 min.
Method: The following example uses the thiobarbituric acid-reactive substances (TBARS) assay to identify compounds that enhance radical production during ultrasound exposure of solutions containing iron or iron plus a chelant. All solutions were prepared in pH 7.5 phosphate buffer containing approximately 2 mM deoxyribose, 0.01% hydrogen peroxide, 0.08-0.1 mM ferric iron, and the additives indicated in the table below. Solutions were sonicated at 30 W, 2 MHz, 32-34 degrees Celsius for ten minutes using a PZT-8 1.8 cm diameter custom transducer. The sonicated solution was placed on an orbit shaker rotating at 25 RPM to ensure even sonication of the solution while the transducer was held stationary. Control solutions were placed in a controlled temperature bath at 32-34 degrees Celsius without sonication. […] The test tube was sealed and heated to 90 degrees Celsius for 30 minutes and allowed to cool to room temperature for 20 minutes. The absorbance at 532 nm was measured. The enhanced radical production during ultrasound exposure was determined by comparing the amount of deoxyribose degradation that occurs in the sonicated solution versus the control solution using the following equation: [formula]
For data set [4] the following is noted: on chelation of iron; cited from earlier work.
Data set [5] relates to deoxyribose. As to the kind of experiment: TBARS assay, chelants during ultrasound exposure, ferric iron (Example 2). It counts as biochemical. The settings on record: 0.02-0.03 mM ferric iron, 0.04-0.05 mM chelant, 0.01% hydrogen peroxide, pH 7.5, 30 W 2 MHz 10 min. How it is done: as §1, with “The following example uses the thiobarbituric acid-reactive substances (TBARS) assay to identify chelants that enhance radical production during ultrasound exposure. All” for “All”, “0.02-0.03” for “0.025 mM ferrous iron, 0.025”, “0.04-0.05 mM chelant.” for “the additives indicated in the table below.”

Data set [6] relates to deoxyribose. As to the kind of experiment: TBARS assay, additives with ferrous iron/EDTA, ultrasound (Example 11). Format: biochemical. The settings on record: 0.075 mM additive; 0.05 mM ferrous iron, 0.075 mM EDTA. The procedure: as §1, with “The following example uses the thiobarbituric acid-reactive substances (TBARS) assay to identify metals that enhance radical production during ultrasound. All” for “All”, “are” for “were”, “0.05” for “0.025”, “iron added as FeSO4 hydrate, 0.075” for “iron, 0.025”, “EDTA,” for “ferric iron,”, “is” for “was”

For data set [7], the system named is deoxyribose. As to the kind of experiment: TBARS assay, existing sonodynamic agents with a metal, ultrasound (Example 14). The following applies: 0.025 mM ferrous iron, 0.025 mM ferric iron. Format: biochemical. The procedure:
as §1, with “are” for “were”, “is” for “was”

As for `COc1cccc2c1C(=O)c1c(O)c3c(c(O)c1C2=O)C[C@@](O)(C(=O)CO)C[C@@H]3O[C@H]1C[C@H](N)[C@H](O)[C@H](C)O1` [Adriamycin], the “% Ultrasound Mediated Activity vs Control” value with deoxyribose [1] (0.029 mM additive) came to 29%.
For `O=C(O)CN(CCN(CC(=O)O)CC(=O)O)CC(=O)O` [Ethylenediaminetetraacetic acid], the “% Ultrasound Mediated Activity vs Control” value amounted to 64% with deoxyribose [2], 277% in the data set on deoxyribose [3] and 575% with deoxyribose [5]. Also, the “lowering of the redox potential of Fe(III)/Fe(II)” value in data set [4] is listed as 0.65 V.
For `O=c1c(O)c(-c2cc(O)c(O)c(O)c2)oc2cc(O)cc(O)c12` [Myricetin], the “% Ultrasound Mediated Activity vs Control” value in the data set on deoxyribose [6] is more than 100%.
Regarding `O=c1c(O)c(-c2ccc(O)c(O)c2)oc2cc(O)cc(O)c12` [Quercetin], the “% Ultrasound Mediated Activity vs Control” value with deoxyribose [6] is reported as more than 100%.
As to `O=C([O-])c1c(Cl)c(Cl)c(Cl)c(Cl)c1-c1c2cc(I)c(=O)c(I)c-2oc2c(I)c([O-])c(I)cc12.[Na+].[Na+]` [Rose Bengal], the “% Ultrasound Mediated Activity vs Control” value in the data set with deoxyribose [1] (0.028 mM additive) stood at 28%.
On to Hypocrellin A, for which the “% Ultrasound Mediated Activity vs Control” value with deoxyribose [7] (0.025 mM additive) is more than 30%.
With “Iron(III) phthalocyanine-4,4′,4″,4″′-tetrasulfonic acid”, the “% Ultrasound Mediated Activity vs Control” value in the data set with deoxyribose [7] (0.025 uM additive) was more than 30%.
